The structures appear in SMILES notation. Read-outs that look alike come from different tables or passages of the source.

Assay [1] has as its target histamine receptor H1 (Homo sapiens, UniProt P35367). Put plainly: Histamine H1 radioligand binding ([3H]Pyrilamine). The following applies: read-out: Histamine Binding (1 μM) H1, percent inhibition of specific binding, 1 μM. In outline: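 Values are percent inhibition of specific [3H]pyrilamine (1.2 nM) binding with compounds at ≤1 μM (1% DMSO vehicle); 180 min incubation at 25 °C, pH 7.4 Tris buffer, on CHO-expressed human H1 receptor; 1 μM pyrilamine defined nonspecific binding, bound ligand counted after filtration.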

The target of assay [2] is human dopamine D2L receptor (Homo sapiens, UniProt P14416). As to the kind of experiment: Dopamine D2L radioligand binding ([3H]Spiperone). Particulars: compound at 1 μM. An excerpt: Non-specific binding was estimated in the presence of […] Haloperidol. Receptor proteins were filtered and washed, the filters were then counted to determine [^3H]Spiperone specifically bound. […] Biochemical assay results are presented as the percent inhibition of specific binding in Table 9.
human dopamine D2L receptor, sequence (P14416 whole entry): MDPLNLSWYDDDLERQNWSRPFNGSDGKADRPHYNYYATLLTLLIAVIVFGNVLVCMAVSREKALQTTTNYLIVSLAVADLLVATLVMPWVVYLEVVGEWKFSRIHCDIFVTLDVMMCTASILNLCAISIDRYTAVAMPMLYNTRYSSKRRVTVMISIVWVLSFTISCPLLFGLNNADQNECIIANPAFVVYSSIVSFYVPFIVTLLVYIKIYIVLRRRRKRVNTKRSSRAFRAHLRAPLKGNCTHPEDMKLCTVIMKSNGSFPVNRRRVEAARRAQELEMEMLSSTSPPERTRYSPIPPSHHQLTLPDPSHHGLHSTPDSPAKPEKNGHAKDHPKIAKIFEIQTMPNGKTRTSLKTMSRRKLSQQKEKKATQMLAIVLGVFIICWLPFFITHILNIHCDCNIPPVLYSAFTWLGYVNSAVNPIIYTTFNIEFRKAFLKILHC

Setting [3] is: percent inhibition of specific binding, read-out: Inhibition of ligand binding, Dopamine D2L.
The mark [4] stands for this setting: […] [3H]Spiperone, read-out: Inhibition of ligand binding, Dopamine D2L (percent inhibition of specific binding).

histamine receptor H1, sequence (P35367 whole entry): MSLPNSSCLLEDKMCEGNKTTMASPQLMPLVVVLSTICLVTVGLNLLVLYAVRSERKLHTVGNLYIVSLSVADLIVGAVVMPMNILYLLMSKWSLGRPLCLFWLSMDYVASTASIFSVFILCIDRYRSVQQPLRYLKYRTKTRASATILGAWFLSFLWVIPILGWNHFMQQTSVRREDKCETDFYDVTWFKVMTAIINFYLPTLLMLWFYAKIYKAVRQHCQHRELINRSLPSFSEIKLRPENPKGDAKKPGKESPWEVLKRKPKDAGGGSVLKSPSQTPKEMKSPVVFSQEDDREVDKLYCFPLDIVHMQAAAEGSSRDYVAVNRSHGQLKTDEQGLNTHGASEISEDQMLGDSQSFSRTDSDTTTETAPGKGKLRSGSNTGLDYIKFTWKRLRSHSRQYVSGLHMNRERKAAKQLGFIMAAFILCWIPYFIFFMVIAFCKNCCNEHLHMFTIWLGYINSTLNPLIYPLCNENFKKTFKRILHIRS

Turning to `C/C(=C\n1c2c(c3cc(C)ccc31)CN(C)CC2)c1cnccn1` [Compound 287, (E)-2,8-dimethyl-5-(2-(pyrazin-2-yl)prop-1-enyl)-2,3,4,5-tetrahydro-1H-pyrido[4,3-b]indole], the results for the inhibition at 1 µM in assay [1] and in assay [2] (setting [3]) were 33% and 72%, respectively.
On to `C=C(Cn1c2c(c3cc(C)ccc31)CN(C)CC2)c1cnccn1` [Compound No. 364, 2,8-dimethyl-5-(2-(pyrazin-2-yl)allyl)-2,3,4,5-tetrahydro-1H-pyrido[4,3-b]indole], for which the inhibition at 1 µM in assay [1] was 95%; in assay [2] (setting [4]), 27%.
Consider `C/C(=C\n1c2c(c3cc(C)ccc31)C(C)N(C)C(C)C2)c1ccncc1` (stereo not shown) [Compound 285, (E)-1,2,3,8-tetramethyl-5-(2-(pyridin-4-yl)prop-1-enyl)-2,3,4,5-tetrahydro-1H-pyrido[4,3-b]indole], for which the figures for the inhibition at 1 µM in assay [1] and in assay [2] (setting [3]) were 21% and 53%, respectively.
Consider `Cc1ccc2c(c1)c1c(n2/C=C(\F)c2ccc(Br)nc2)CCN(C)C1` [compound 416, (Z)-5-(2-(6-bromopyridin-3-yl)-2-fluorovinyl)-2,8-dimethyl-2,3,4,5-tetrahydro-1H-pyrido[4,3-b]indole], for which the results for the inhibition at 1 µM in assay [1] and in assay [2] (setting [4]) were 91% and 20%, respectively.
The matching figures for `C/C(=C\n1c2c(c3cc(Cl)ccc31)CN(C)CC2)c1cc(C)nc(C)c1` [compound 393, (E)-8-chloro-5-(2-(2,6-dimethylpyridin-4-yl)prop-1-enyl)-2-methyl-2,3,4,5-tetrahydro-1H-pyrido[4,3-b]indole]: 69% and 99%.
The corresponding values for `CNc1ccc2c(c1)c1c(n2/C=C(\C)c2ccc(F)cc2)CCN(C)C1` [compound 431, (E)-5-(2-(4-fluorophenyl)prop-1-enyl)-N,2-dimethyl-2,3,4,5-tetrahydro-1H-pyrido[4,3-b]indol-8-amine] are 33% and 80%.
`CC(=O)CN1CCc2c(c3cc(C)ccc3n2/C=C(\C)c2ccncc2)C1` [compound 427, (E)-1-(8-methyl-5-(2-(pyridin-4-yl)prop-1-enyl)-3,4-dihydro-1H-pyrido[4,3-b]indol-2(5H)-yl)propan-2-one]: the inhibition at 1 µM worked out at 1% in assay [1] and 17% in assay [2] (setting [4]).
The matching figures for `C/C(=C\n1c2c(c3cc(N(C)C)ccc31)CN(C)CC2)c1ccncc1` [compound 450, (E)-N,N,2-trimethyl-5-(2-(pyridin-4-yl)prop-1-enyl)-2,3,4,5-tetrahydro-1H-pyrido[4,3-b]indol-8-amine]: 43% and 35%.
The corresponding values for `Cc1ccc2c(c1)c1c(n2C#Cc2cscn2)CCN(C)C1` [Compound No. 498, 4-((2,8-dimethyl-3,4-dihydro-1H-pyrido[4,3-b]indol-5(2H)-vyl)ethynyl)thiazole] are 65% and 9%.
As to `C/C(=C\n1c2c(c3cc(N(C)C)ccc31)CN(C)CC2)c1ccc(F)cc1` [compound 442, (E)-5-(2-(4-fluorophenyl)prop-1-enyl)-N,N,2-trimethyl-2,3,4,5-tetrahydro-1H-pyrido[4,3-b]indol-8-amine], the inhibition at 1 µM in assay [1] came out at 29%; in assay [2] (setting [4]), 77%.
The matching figures for `CNC(=O)c1ccc(/C(F)=C/n2c3c(c4cc(C)ccc42)CN(C)CC3)cc1F` [compound 424, (Z)-4-(2-(2,8-dimethyl-3,4-dihydro-1H-pyrido[4,3-b]indol-5(2H)-yl)-1-fluorovinyl)-2-fluoro-N-methylbenzamide]: 43% and 20%.
On to `C/C(=C\n1c2c(c3cc(C)ccc31)CN(C1CC1)CC2)c1ccncc1` [Compound 292, (E)-2-cyclopropyl-8-methyl-5-(2-(pyridin-4-v)prop-1-enyl)-2,3,4,5-tetrahydro-H-pyrido[4,3-b]indole], for which the results for the inhibition at 1 µM in assay [1] and in assay [2] (setting [3]) were 11% and 71%, respectively.
As for `CC(O)(Cn1c2c(c3cc(Cl)ccc31)CN(CCCC(=O)c1ccc(F)cc1)CC2)c1ccncc1` (stereo not shown) [Compound No. 464, 4-(8-chloro-5-(2-hydroxy-2-(pyridin-4-yl)propyl)-3,4-dihydro-1H-pyrido[4,3-b]indol-2(5H)-yl)-1-(4-fluorophenyl)butan-1-one], the inhibition at 1 µM in assay [1] was found to be 66%; in assay [2] (setting [4]), 93%.
As to `CN1CCc2c(c3cc(Cl)ccc3n2/C=C(/c2ccncc2)C(C)(C)C)C1` [Compound No. 286, (E)-8-chloro-5-(3,3-dimethyl-2-(pyridin-4-yl)but-1-enyl)-2-methyl-2,3,4,5-tetrahydro-1H-pyrido[4,3-b]indole], the results for the inhibition at 1 µM in assay [1] and in assay [2] (setting [3]) were 19% and 23%, respectively.
For `COc1ccc(/C(F)=C/n2c3c(c4cc(C)ccc42)CN(C)CC3)cn1` [compound 430, (Z)-5-(2-fluoro-2-(6-methoxypyridin-3-yl)vinyl)-2,8-dimethyl-2,3,4,5-tetrahydro-1H-pyrido[4,3-b]indole], the values for the inhibition at 1 µM in assay [1] and in assay [2] (setting [4]) were 72% and 25%, respectively.
The corresponding values for `CNc1ccc2c(c1)c1c(n2/C=C(\C)c2ccncc2)CCN(C)C1` [compound 433, (E)-N,2-dimethyl-5-(2-(pyridin-4-yl)prop-1-enyl)-2,3,4,5-tetrahydro-1H-pyrido[4,3-b]indol-8-amine] are 13% and 61%.
The corresponding values for `Cc1ccc2c(c1)c1c(n2C#Cc2cncn2C)CCN(C)C1` [Compound No. 497, 2,8-dimethyl-5-((1-methyl-1H-imidazol-5-yl)ethynyl)-2,3,4,5-tetrahydro-1H-pyrido[4,3-b]indole] are 17% and 14%.
Regarding `Cc1ccc2c(c1)c1c(n2/C=C(/c2ccccc2)c2ccncc2)CCN(C)C1` [compound 453, (Z)-2,8-dimethyl-5-(2-phenyl-2-(pyridin-4-yl)vinyl)-2,3,4,5-tetrahydro-1H-pyrido[4,3-b]indole], the inhibition at 1 µM in assay [1] was found to be 26%; in assay [2] (setting [4]), 51%.
Consider `C/C(=C\n1c2c(c3cc(Cl)ccc31)CN(CCCC1(c3ccc(F)cc3)OCCO1)CC2)c1ccncc1` [compound 398, (E)-8-chloro-2-(3-(2-(4-fluorophenyl)-1,3-dioxolan-2-yl)propyl)-5-(2-(pyridin-4-yl)prop-1-enyl)-2,3,4,5-tetrahydro-1H-pyrido[4,3-b]indole], for which the inhibition at 1 µM in assay [1] worked out at 95%; in assay [2] (setting [4]), 97%.
The matching figures for `Cc1ccc2c(c1)c1c(n2/C=C(\F)c2cscn2)CCN(C)C1` [compound 438, (Z)-4-(2-(2,8-dimethyl-3,4-dihydro-1H-pyrido[4,3-b]indol-5(2H)-yl)-1-fluorovinyl)thiazole]: 92% and 17%.
The corresponding values for `C/C(=C\n1c2c(c3cc(C)ccc31)CN(C)CC2)c1ccsc1` [compound 387, (E)-2,8-dimethyl-5-(2-(thiophen-3-yl)prop-1-enyl)-2,3,4,5-tetrahydro-1H-pyrido[4,3-b]indole] are 84% and 99%.
On to `C/C(=C\n1c2c(c3cc(C)ccc31)CN(C)CC2)c1cc(C)nc(C)c1` [compound 399, (E)-5-(2-(2,6-dimethylpyridin-4-yl)prop-1-enyl)-2,8-dimethyl-2,3,4,5-tetrahydro-1H-pyrido[4,3-b]indole], for which the inhibition at 1 µM in assay [1] came out at 13%; in assay [2] (setting [4]), 73%.
The matching figures for `Cc1ccc2c(c1)c1c(n2/C=C(\F)c2cccs2)CCN(C)C1` [compound 451]: 99% and 70%.
For the compound `C/C(=C\n1c2c(c3cc(C)ccc31)CN(C)CC2)c1cccc(S(C)(=O)=O)c1` [Compound No. 473, (E)-2,8-dimethyl-5-(2-(3-(methylsulfonyl)phenyl)prop-1-enyl)-2,3,4,5-tetrahydro-1H-pyrido[4,3-b]indole], the inhibition at 1 µM in assay [1] worked out at 35%; in assay [2] (setting [4]) it was 59%.
As for `CCCCNc1ccc2c(c1)c1c(n2/C=C(\C)c2ccc(F)cc2)CCN(C)C1` [compound 432, (E)-N-butyl-5-(2-(4-fluorophenyl)prop-1-enyl)-2-methyl-2,3,4,5-tetrahydro-1H-pyrido[4,3-b]indol-8-amine], the inhibition at 1 µM in assay [1] was 46%; in assay [2] (setting [4]), 79%.
The corresponding values for `Cc1ccc2c(c1)c1c(n2C#Cc2cccc(N(C)C)c2)CCN(C)C1` [Compound No. 489, 3-((2,8-dimethyl-3,4-dihydro-1H-pyrido[4,3-b]indol-5(2H)-vyl)ethynyl)-N,N-dimethylaniline] are 13% and 9%.
The corresponding values for `C/C(=C\n1c2c(c3cc(NC4CCC4)ccc31)CN(C)CC2)c1ccncc1` [compound 448, (E)-N-cyclobutyl-2-methyl-5-(2-(pyridin-4-yl)prop-1-enyl)-2,3,4,5-tetrahydro-1H-pyrido[4,3-b]indol-8-amine] are -10% and 79%.
With `C/C(=C\n1c2c(c3cc(NCCO)ccc31)CN(C)CC2)c1ccncc1` [compound 449, (E)-2-(2-methyl-5-(2-(pyridin-4-yl)prop-1-enyl)-2,3,4,5-tetrahydro-1H-pyrido[4,3-b]indol-8-ylamino)ethanol], the inhibition at 1 µM in assay [1] was -7%; in assay [2] (setting [4]) it was 59%.
The corresponding values for `CN1CCc2c(c3cc(Cl)ccc3n2/C=C(\c2ccccc2)c2ccncc2)C1` [Compound No. 460, (E)-8-chloro-2-methyl-5-(2-phenyl-2-(pyridin-4-yl)vinyl)-2,3,4,5-tetrahydro-1H-pyrido[4,3-b]indole] are 17% and 67%.
